Laboratory results taken from PMC8317940, “Strained contacts with the cell membrane may influence ligand affinity to G protein coupled receptors: a case of free fatty acid receptor 1 agonists” (Journal of Enzyme Inhibition and Medicinal Chemistry, 2021).

Each compound was assayed against T1, free fatty acid receptor 1 (FFA1, GPR40) (Homo sapiens, UniProt O14842) (assay: calcium flux (FLIPR) agonist assay in CHO cells stably expressing human FFA1).
T1 construct: gene FFAR1
Type: cell-based

T1 sequence (O14842 whole entry): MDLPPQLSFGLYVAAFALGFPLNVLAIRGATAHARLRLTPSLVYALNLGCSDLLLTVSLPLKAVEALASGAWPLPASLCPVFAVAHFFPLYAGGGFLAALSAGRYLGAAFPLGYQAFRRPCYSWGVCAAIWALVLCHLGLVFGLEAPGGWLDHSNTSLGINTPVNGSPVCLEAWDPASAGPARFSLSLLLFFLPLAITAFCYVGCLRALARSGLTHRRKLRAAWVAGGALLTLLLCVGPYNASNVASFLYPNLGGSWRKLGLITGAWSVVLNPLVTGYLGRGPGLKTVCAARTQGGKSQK

`COc1cccc(-c2ccc(NC(=O)c3nnc(CCC(=O)O)s3)cc2)c1` [2g, 3-(5-{[(3′-Methoxybiphenyl-4-yl)amino]carbonyl}-1,3,4-thiadiazol-2-yl)propanoic acid] and `O=C(O)CCc1nnc(C(=O)Nc2cccc(-c3ccc(Cl)cc3)c2)s1` [2a, 3-(5-{[(4′-Chlorobiphenyl-3-yl)amino]carbonyl}-1,3,4-thiadiazol-2-yl)propanoic acid] are within 1.5-fold of each other in EC50: 1.35 µM for the first, 1.32 µM for the second.

`O=C(O)CCc1nnc(C(=O)Nc2cccc(-c3ccc(OC(F)(F)F)cc3)c2)s1` [2c, 3-[5-({[4′-(Trifluoromethoxy)biphenyl-3-yl]amino}carbonyl)-1,3,4-thiadiazol-2-yl]propanoic acid] and `O=C(O)CCc1nnc(C(=O)Nc2ccc(-c3cccc(C(F)(F)F)c3)cc2)s1` [2e, 3-[5-({[3′-(Trifluoromethyl)biphenyl-4-yl]amino}carbonyl)-1,3,4-thiadiazol-2-yl]propanoic acid] are within 1.5-fold of each other in EC50: 1.25 µM for the first, 1.86 µM for the second.
